Laboratory results reported in patent publication US20100204129A1, “USE OF A PEPTIDE AS A THERAPEUTIC AGENT” (priority 2008, published 2010).
Non-standard residues stand in square brackets, D forms with d. Residues, ends and D or L forms follow the SMILES beside them.

Columns and labels:
HUVEC = experiment: Endothelial tube formation assay; format: cell-based, human; conditions: peptide 10 micrograms per ml, 20 hours
Procedure: The endothelial tube formation assay is based on the ability of endothelial cells to form three-dimensional capillary-like tubular structures when cultured on a gel of basement membrane extract. The endothelial tube formation assay represents a powerful model for studying inhibition and induction of angiogenesis. Pre-labeled HUVEC with Calcein AM were seeded in a 96-well culture plate coated with extracellular metrix (Chemicon international Cat. ECM625) and treated with test peptide—10 micrograms per ml—in full growth medium. […] control was vehicle only. The endothelial cells were allowed to form tubes for 20 hours and were then examined under an inverted fluorescent microscope. Duplicate wells for each treatment were photographed and quantitatively analyzed for an average tubule length using image analysis software ImageProPlus. Raw data were expressed as average tubule lengths in pixels ±standard deviation. Statistic p values were computed using the Student's t-test.

A549 cells [1] = experiment: Propidium iodide cell cycle assay; format: cell-based, human; conditions: peptide 10 micrograms per ml, 24 hours, FACS
From the text: Human A549 cells (carcinomic human alveolar basal epithelial cells) were utilized in the experiments employing the Propidium iodide cell cycle assay. The eukaryotic cell cycle is a series of events that take place in a cell leading to its replication. The regulation of the cell cycle involves steps crucial to the cell, including detecting and repairing genetic damage, and provision of various checks to prevent uncontrolled cell division. The molecular events that control the cell cycle are ordered and directional; that is, each process occurs in a sequential fashion. The cell cycle consists of four distinct phases: G1 phase, S phase, G2 phase (collectively known as interphase) and M phase. M phase is itself composed of two tightly coupled processes: mitosis, in which the cell's chromosomes are divided between the two daughter cells, and cytokinesis, in which the cell's cytoplasm divides forming distinct cells. Activation of each phase is dependent on the proper progression and completion of the previous one. Cells that have temporarily or reversibly stopped dividing are said to have entered a state of quiescence called Go phase. The relatively brief M phase consists of nuclear division and cytoplasmic division. The first phase within interphase, from the end of the previous M phase till the beginning of DNA synthesis is called G1 (G indicating gap or growth). During this phase the biosynthetic activities of the cell resume at a high rate. This phase is marked by synthesis of various enzymes that are required in S phase, mainly those needed for DNA replication. The ensuing S phase starts when DNA synthesis commences; when it is complete, all of the chromosomes have been replicated. The cell then enters the G2 phase, which lasts until the cell enters mitosis. Significant protein synthesis occurs during this phase, mainly involving the production of microtubules, which are required during the process of mitosis. […]
Propidium iodide is an intercalating agent and a fluorescent molecule that can be used to stain DNA. […] After incubation for 40 min at 37° C., cells were analyzed in the FACS.

A549 cells [2] = experiment: Apoptosis prevention assay (C2 ceramide, Annexin-5); format: cell-based, human; conditions: A549 cells pretreated 30 min with peptide 10 micrograms per ml, then C2 ceramide
From the text: Human A549 cells (carcinomic human alveolar basal epithelial cells) were utilized in the experiments employing the Annexin-5 apoptosis assay. Annexin-5 is a member of a highly conserved protein family that binds acidic phospholipids in a calcium-dependent manner. […] Phosphatidylserine is translocated from the inner side of the plasma membrane to the outer layer when cells undergo death by apoptosis or cell necrosis and serves as a signal by which cell destined for death are recognized by phagocytes. A549 cells were pretreated for 30 min with test peptide—10 micrograms per ml—followed by the exposure to C2 ceramide. Ceramide mediates cell apoptosis through the activation of the mitogen activating protein kinase (MAPK) and the stress activated kinase (JNK/SAPK). C2 ceramide is a synthetic, membrane soluble analog of ceramide.

[3] = test system: Human Peripheral Blood Mononuclear Cells (PBMC); experiment: B cell proliferation assay (SAC plus Interleukin-2, 3H-thymidine); format: cell-based; conditions: peptide 10 micrograms per ml, 3H-thymidine incorporation
Procedure: Human Peripheral Blood Mononuclear Cells (PBMC) were obtained from normal human donors. The B cell proliferation was induced by stimulation of the cells with the B cell mitogen Staphylococcus aureus Cowans I (SAC) plus Interleukin-2, either in the absence (positive proliferation control), or in the presence of test peptide—10 micrograms per ml—to examine their effects on the B cell response. 10^5/well PBMC were plated in 96-well microtiter plates and assayed in duplicate with the peptide. Cell cultures were incubated at 37° C. for 3 days in a 5% CO2 incubator and were thereafter pulsed with 1 microCi/well ^3H-thymidine for additional 12 hours of culture. At the end of incubation time, the plates were harvested and the cells counted by liquid scintillation for the incorporation of ^3H-thymidine as a measure of B cell proliferation.

SMILES: CC(C)C[C@H](NC(=O)[C@H](CC(C)C)NC(=O)[C@@H](Cc1c[nH]c2ccccc12)NC(=O)[C@H](Cc1ccccc1)NC(=O)[C@@H](Cc1c[nH]c2ccccc12)NC(=O)[C@H](CCC(N)=O)NC(=O)[C@H](CCC(N)=O)NC(=O)[C@@H]1CCCN1C(=O)[C@H](CCCCN)NC(=O)[C@@H]1CCCN1C(=O)[C@@H](CCCNC(=N)N)NC(=O)[C@@H]1CCCN1C(=O)CNC(=O)[C@H](CC(C)C)NC(=O)[C@H](CC(C)C)NC(=O)[C@H](Cc1ccc(O)cc1)NC(=O)CNC(=O)[C@H](C)NC(=O)[C@H](CO)NC(=O)[C@H](CC(N)=O)NC(=O)[C@H](CC(C)C)NC(=O)[C@@H](NC(=O)[C@H](Cc1c[nH]c2ccccc12)NC(=O)CN)[C@@H](C)O)C(N)=O [Spantide-I, Gly-Trp-Thr-Leu-Asn-Ser-Ala-Gly-Tyr-Leu-Leu-Gly-Pro-D-Arg-Pro-Lys-Pro-Gln-Gln-D-Trp-Phe-D-Trp-Leu-Leu-NH2] (H-GWTLNSAGYLLGP[dR]PKPQQ[dW]F[dW]LL-NH2)
- % inhibition of tube formation (HUVEC): 1%
- Cell cycle analysis G0/G1 (A549 cells [1]): 61.6
- Cell cycle analysis G2/M (A549 cells [1]): 7.7
- Cell cycle analysis S (A549 cells [1]): 30.7
- % prevention of ceramide induced apoptosis (A549 cells [2]): −20.5%
- % of SAC/IL2 induced control [3]: 106.6%
